From patent US20250215039A1, “NUCLEOSIDES FOR TREATING CANCER” (PRIMEFOUR THERAPEUTICS, INC., priority 2022, published 2025)
Read-outs that look alike come from different tables or passages of the source.

Tested on: cancer cell lines
Assay: Cancer cell proliferation activity (CellTiterGlo, 72 h)
Type: cell-based
Conditions: 72 h, 72 h, read-out: IC50
Outline: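 Readout is CellTiterGlo luminescence after 72 h compound exposure (0.1% DMSO final), started one day post-seeding, at 37 °C.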

IC50 (5637 cell line (bladder)): 8.67 µM
IC50 (CLS439 cell line (bladder)): > 50 µM
IC50 (HS729 cell line (muscle)): > 50 µM
IC50 (JAR cell line (placenta)): > 50 µM
IC50 (U20S cell line, bone): > 50 µM
IC50 (Homo sapiens, 22Rv1, 72 h, 22RV1 cell line (prostate)): > 50 µM
IC50 (Homo sapiens, 786-0, 72 h, 786O cell line (kidney)): > 50 µM
IC50 (Homo sapiens, A204, 72 h, A204 cell line (muscle)): 1 µM
IC50 (Homo sapiens, A549, 72 h, A549 cell line, lung): > 50 µM
IC50 (Homo sapiens, A673, 72 h, A673 cell line (bone)): > 50 µM
IC50 (Homo sapiens, A2780, 72 h, A2780 cell line (ovary)): > 50 µM
IC50 (Homo sapiens, A-375, 72 h, A375 cell line (skin)): > 50 µM
IC50 (Homo sapiens, A-431, 72 h, A431 cell line (skin)): > 50 µM
IC50 (Homo sapiens, ACHN, ACHN cell line (kidney)): 3.2 µM
IC50 (Homo sapiens, ASPC1, 72 h, ASPC1 cell line (pancreas)): > 50 µM
IC50 (Homo sapiens, BT-20, 72 h, BT20 cell line (breast)): > 50 µM
IC50 (Homo sapiens, BXPC-3, 72 h, BXPC3 cell line (pancreas)): > 50 µM
IC50 (Homo sapiens, C-33-A, C33A cell line, endometrial): 4.92 µM
IC50 (Homo sapiens, CAKI-1, 72 h, CAKI1 cell line (kidney)): 1.36 µM
IC50 (Homo sapiens, COLO 205, 72 h, COLO205 cell line (colon)): > 50 µM
IC50 (Homo sapiens, COLO-678, 72 h, COLO678 cell line (colon)): > 50 µM
IC50 (Homo sapiens, Ca-Ski, CASKI cell line, endometrial): > 50 µM
IC50 (Homo sapiens, Caco-2, 72 h, CACO2 cell line (colon)): > 50 µM
IC50 (Homo sapiens, Calu-6, 72 h, CALU6 cell line (lung)): > 50 µM
IC50 (Homo sapiens, DLD-1, 72 h, DLD1 cell line (colon)): > 50 µM
IC50 (Homo sapiens, DU-145, 72 h, DU145 cell line (prostate)): > 50 µM
IC50 (Homo sapiens, EFO-21, 72 h, EFO21 cell line (ovary)): > 50 µM
IC50 (Homo sapiens, EJ-28, 72 h, EJ28 cell line (bladder)): > 50 µM
IC50 (Homo sapiens, Granta-519, 72 h, GRANTA-519 cell line (hematological)): 1.12 µM
IC50 (Homo sapiens, HCT-15, 72 h, HCT15 cell line (colon)): > 50 µM
IC50 (Homo sapiens, HCT-116, 72 h, HCT116 cell line (colon)): > 50 µM
IC50 (Homo sapiens, HEK293, 72 h, HEK293 cell line (kidney)): > 50 µM
IC50 (Homo sapiens, HL-60, 72 h, HL-60 cell line (hematological)): > 50 µM
IC50 (Homo sapiens, HT-29, 72 h, HT29 cell line (colon)): > 50 µM
IC50 (Homo sapiens, HT-1080, 72 h, HT1080 cell line (connective tissue)): > 50 µM
IC50 (Homo sapiens, HeLa, HELA cell line, endometrial): > 50 µM
IC50 (Homo sapiens, HepG2, 72 h, HEPG2 cell line (liver)): > 50 µM
IC50 (Homo sapiens, Hs-578T, HS578T cell line, breast): > 50 µM
IC50 (Homo sapiens, IGROV-1, 72 h, IGROV1 cell line (ovary)): > 50 µM
IC50 (Homo sapiens, IMR-90, 72 h, IMR90 cell line, lung): > 50 µM
IC50 (Homo sapiens, J82, 72 h, J82 cell line (bladder)): > 50 µM
IC50 (Homo sapiens, JEG-3, 72 h, JEG3 cell line (placenta)): > 50 µM
IC50 (Homo sapiens, JIMT-1, 72 h, JIMT1 cell line (breast)): > 50 µM
IC50 (Homo sapiens, K562, 72 h, K-562 cell line (hematological)): > 50 µM
IC50 (Homo sapiens, Kasumi 1, 72 h, KASUMI-1 cell line (hematological)): > 50 µM
IC50 (Homo sapiens, L-363, 72 h, L-363 cell line (hematological)): > 50 µM
IC50 (Homo sapiens, LoVo, LOVO cell line (colon)): > 50 µM
IC50 (Homo sapiens, MCF7, 72 h, MCF7 cell line (breast)): > 50 µM
IC50 (Homo sapiens, MDA-MB-231, 72 h, MDAMB231 cell line (breast)): > 50 µM
IC50 (Homo sapiens, MDA-MB-435, 72 h, MDAMB435 cell line (skin)): > 50 µM
IC50 (Homo sapiens, MDA-MB-436, 72 h, MDAMB436 cell line (breast)): > 50 µM
IC50 (Homo sapiens, MDA-MB-468, 72 h, MDAMB468 cell line (breast)): > 50 µM
IC50 (Homo sapiens, MG-63, 72 h, MG63 cell line (bone)): > 50 µM
IC50 (Homo sapiens, MHH-ES-1, 72 h, MHHES1 cell line (bone)): > 50 µM
IC50 (Homo sapiens, MIA PaCa-2, 72 h, MIAPACA2 cell line (pancreas)): > 50 µM
IC50 (Homo sapiens, MINO, MINO cell line (hematological)): 0.25 µM
IC50 (Homo sapiens, MV4-11, 72 h, MV4-11 cell line (hematological)): 3.4 µM
IC50 (Homo sapiens, NCI-H23, 72 h, NCI-H23 cell line (lung)): > 50 µM
IC50 (Homo sapiens, NCI-H82, 72 h, NCIH82 cell line (lung)): > 50 µM
IC50 (Homo sapiens, NCI-H292, 72 h, NCIH292 cell line (lung)): > 50 µM
IC50 (Homo sapiens, NCI-H460, 72 h, NCIH460 cell line (lung)): 5.15 µM
IC50 (Homo sapiens, OVCAR-3, 72 h, OVCAR3 cell line (ovary)): > 50 µM
IC50 (Homo sapiens, OVCAR-4, 72 h, OVCAR4 cell line (ovary)): > 50 µM
IC50 (Homo sapiens, PANC-1, 72 h, PANC1 cell line (pancreas)): > 50 µM
IC50 (Homo sapiens, PC-3, 72 h, PC3 cell line (prostate)): > 50 µM
IC50 (Homo sapiens, PLC-PRF-5, 72 h, PLCPRF5 cell line (liver)): > 50 µM
IC50 (Homo sapiens, Panc1005, 72 h, PANC1005 cell line (pancreas)): > 50 µM
IC50 (Homo sapiens, RD, RD cell line (muscle)): > 50 µM
IC50 (Homo sapiens, Ramos, RAMOS cell line (hematological)): 1.77 µM
IC50 (Homo sapiens, SAOS-2, 72 h, SAOS2 cell line (bone)): > 50 µM
IC50 (Homo sapiens, SF-268, 72 h, SF268 cell line (brain)): > 50 µM
IC50 (Homo sapiens, SF-295, 72 h, SF295 cell line (brain)): > 50 µM
IC50 (Homo sapiens, SK-BR-3, 72 h, SKBR3 cell line (breast)): 17 µM
IC50 (Homo sapiens, SK-HEP1, 72 h, SKHEP1 cell line (liver)): > 50 µM
IC50 (Homo sapiens, SK-LMS-1, 72 h, SKLMS1 cell line (uterus)): > 50 µM
IC50 (Homo sapiens, SK-MEL-5, 72 h, SKMEL5 cell line, skin): > 50 µM
IC50 (Homo sapiens, SK-MEL-28, 72 h, SKMEL28 cell line (skin)): > 50 µM
IC50 (Homo sapiens, SK-N-AS, SKNAS cell line (brain)): > 50 µM
IC50 (Homo sapiens, SK-N-SH, SKNSH cell line (brain)): > 50 µM
IC50 (Homo sapiens, SK-OV-3, 72 h, SKOV3 cell line (ovary)): > 50 µM
IC50 (Homo sapiens, SNB-75, 72 h, SNB75 cell line (brain)): > 50 µM
IC50 (Homo sapiens, SU-DHL10, 72 h, SU-DHL-10 cell line (hematological)): 1.97 µM
IC50 (Homo sapiens, SU-DHL-6, 72 h, SU-DHL-6 cell line (hematological)): > 50 µM
IC50 (Homo sapiens, SW-620, 72 h, SW620 cell line (colon)): > 50 µM
IC50 (Homo sapiens, T-24, 72 h, T24 cell line (bladder)): > 50 µM
IC50 (Homo sapiens, TE-671, 72 h, TE671 cell line (muscle)): > 50 µM
IC50 (Homo sapiens, THP-1, 72 h, THP-1 cell line (hematological)): > 50 µM
IC50 (Homo sapiens, U-87 MG, U87MG cell line (brain)): > 50 µM
IC50 (Homo sapiens, UMUC3, 72 h, UMUC3 cell line (bladder)): > 50 µM
IC50 (Homo sapiens, UO-31, 72 h, UO31 cell line (kidney)): > 50 µM
IC50 (Homo sapiens, WSU-NHL, WSU-NHL cell line (hematological)): 2.5 µM
IC50 (MT-3, 72 h, MT3 cell line (breast)): > 50 µM
IC50 (NCI-H358M, NCIH358M cell line (lung)): > 50 µM
IC50 (PBMC, PBMC (hematological)): > 50 µM
IC50 (RD-ES, RDES cell line (bone)): > 50 µM
Compound: CC[C@]1(CO)O[C@@H](n2cc(F)c(N)nc2=O)C[C@@H]1O [Cpd. No. 2, 4-amino-1-((2R,4S,5R)-5-ethyl-4-hydroxy-5-(hydroxymethyl)tetrahydrofuran-2-yl)-5-fluoropyrimidin-2(1H)-one]
